Where two headings read alike, the source gives them in different places.
Biological target: T1, integrin α4β1 (RAMOS human cells adhering to VCAM-1) (Homo sapiens, UniProt P05556+P13612)
T1 construct: Ramos cells, which express integrin α4β1; host or cells: RAMOS
Test: Integrin α4β1-VCAM cell adhesion assay (RAMOS cells)
Format: cell-based
Procedure: Integrin α4β1-VCAM Cell Adhesion Assay
The plate was incubated overnight at 4° C. and washed twice with 150 μl per well wash buffer (0.05% Tween 20 in PBS), blocked with 250 μl per well blocking buffer (1% non-fat dry milk in PBS), for 1 hour at room temperature. During blocking step, RAMOS cells were resuspended at 10 million cells/ml in PBS containing […] and incubated at 37° C. for 30 min in a 50 ml tube. […] The plate was emptied by inverting and blotting on paper towels and washed manually twice with PBS. […] To calculate the dose response, the fluorescence value of control wells not containing cells was subtracted from each test well.

[1] = Ramos cells adhering to VCAM, read-out: Ramos Adhesion α4β1/VCAM IC50
[2] = ratio of cell adhesion IC50s, Ramos α4β1/VCAM over RPMI8866 α4β7/MAdCAM

T1 sequence (P13612 34-1032): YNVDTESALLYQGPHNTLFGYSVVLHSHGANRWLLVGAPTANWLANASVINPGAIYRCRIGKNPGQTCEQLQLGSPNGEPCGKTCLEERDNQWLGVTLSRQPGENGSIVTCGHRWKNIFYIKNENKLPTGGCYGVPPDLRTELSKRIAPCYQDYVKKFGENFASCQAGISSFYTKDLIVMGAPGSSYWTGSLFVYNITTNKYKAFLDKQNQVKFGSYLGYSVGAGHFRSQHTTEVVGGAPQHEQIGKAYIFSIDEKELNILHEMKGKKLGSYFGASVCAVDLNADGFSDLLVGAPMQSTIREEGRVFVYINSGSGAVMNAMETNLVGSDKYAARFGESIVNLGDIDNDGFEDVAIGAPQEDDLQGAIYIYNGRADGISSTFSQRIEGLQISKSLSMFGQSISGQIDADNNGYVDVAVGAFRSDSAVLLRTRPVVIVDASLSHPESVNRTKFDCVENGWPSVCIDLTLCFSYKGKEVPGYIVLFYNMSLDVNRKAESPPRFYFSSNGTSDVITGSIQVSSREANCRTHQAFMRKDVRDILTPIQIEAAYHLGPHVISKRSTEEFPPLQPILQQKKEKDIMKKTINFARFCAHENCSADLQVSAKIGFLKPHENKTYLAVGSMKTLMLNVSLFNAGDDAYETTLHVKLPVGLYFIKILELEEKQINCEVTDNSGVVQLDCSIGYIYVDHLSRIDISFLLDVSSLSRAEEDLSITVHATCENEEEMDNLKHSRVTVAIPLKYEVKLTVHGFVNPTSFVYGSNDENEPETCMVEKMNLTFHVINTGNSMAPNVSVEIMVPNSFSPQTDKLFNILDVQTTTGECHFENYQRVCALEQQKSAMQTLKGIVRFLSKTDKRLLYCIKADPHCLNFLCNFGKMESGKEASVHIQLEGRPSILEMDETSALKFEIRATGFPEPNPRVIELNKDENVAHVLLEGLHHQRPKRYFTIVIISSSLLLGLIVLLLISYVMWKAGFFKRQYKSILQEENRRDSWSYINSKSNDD
T1 sequence (P05556 21-798): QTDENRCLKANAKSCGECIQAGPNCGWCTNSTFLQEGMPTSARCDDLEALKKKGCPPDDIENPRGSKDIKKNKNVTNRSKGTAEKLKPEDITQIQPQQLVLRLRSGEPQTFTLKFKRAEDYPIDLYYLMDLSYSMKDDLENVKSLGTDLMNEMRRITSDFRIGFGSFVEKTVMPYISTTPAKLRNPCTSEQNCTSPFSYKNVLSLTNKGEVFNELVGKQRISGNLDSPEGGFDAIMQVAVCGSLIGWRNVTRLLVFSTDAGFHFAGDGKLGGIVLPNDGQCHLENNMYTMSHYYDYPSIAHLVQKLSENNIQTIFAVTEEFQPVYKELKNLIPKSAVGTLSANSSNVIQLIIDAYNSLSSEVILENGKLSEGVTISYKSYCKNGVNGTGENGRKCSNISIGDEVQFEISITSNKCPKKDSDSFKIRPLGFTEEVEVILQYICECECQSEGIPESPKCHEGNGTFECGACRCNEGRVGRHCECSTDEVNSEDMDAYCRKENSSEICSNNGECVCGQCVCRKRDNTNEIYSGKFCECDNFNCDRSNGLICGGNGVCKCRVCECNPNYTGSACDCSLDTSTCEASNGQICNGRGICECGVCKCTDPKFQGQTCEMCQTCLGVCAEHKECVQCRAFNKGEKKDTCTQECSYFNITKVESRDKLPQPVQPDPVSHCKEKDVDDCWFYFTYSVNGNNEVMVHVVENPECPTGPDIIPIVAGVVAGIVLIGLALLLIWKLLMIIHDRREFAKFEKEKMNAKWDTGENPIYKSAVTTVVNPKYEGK

SMILES | IC50 [1] [µM] | Ratio Ramos/RPMI [2] | selectivity α4β7 versus α4β1 cell adhesion assays (RPMI8866 vs Ramos cell adhesion) [fold] | IC50 (Ramos cells, VCAM, read-out: Ramos Adhesion a4b1/VCAM IC50) [µM] | Ratio Ramos/RPMI (ratio of Ramos a4b1/VCAM adhesion IC50 to RPMI8866 a4b7/MAdCAM adhesion IC50)
CC(C)C[C@@H]1NC(=O)c2ccc(-c3ccc(N4CCN(C(=O)[C@H]5CCC[C@H]5C(=O)N5CCN(c6ccc(-c7ccc8cc7CNC(=O)[C@@H]7CCCN7[C@H](C(=O)NC(C)(C)C)[C@H](C)NC(=O)[C@H]([C@@H](C)O)NC(=O)[C@H](CC(=O)O)NC(=O)[C@H](CC(C)C)NC8=O)cc6)CC5)CC4)cc3)c(c2)CNC(=O)[C@@H]2CCCN2[C@H](C(=O)NC(C)(C)C)[C@H](C)NC(=O)[C@H]([C@@H](C)O)NC(=O)[C@H](CC(=O)O)NC1=O [Compound 458] | 0.99 | 23 |  |  | 
CC(C)C[C@@H]1NC(=O)c2ccc(-c3ccc(N4CCN(Cc5cc(CN6CCN(c7ccc(-c8ccc9cc8CNC(=O)[C@@H]8CCCN8[C@H](C(=O)NC(C)(C)C)[C@H](C)NC(=O)[C@H]([C@@H](C)O)NC(=O)[C@H](CC(=O)O)NC(=O)[C@H](CC(C)C)NC9=O)cc7)CC6)cc(CN6CCN(c7ccc(-c8ccc9cc8CNC(=O)[C@@H]8CCCN8[C@H](C(=O)NC(C)(C)C)[C@H](C)NC(=O)[C@H]([C@@H](C)O)NC(=O)[C@H](CC(=O)O)NC(=O)[C@H](CC(C)C)NC9=O)cc7)CC6)c5)CC4)cc3)c(c2)CNC(=O)[C@@H]2CCCN2[C@H](C(=O)NC(C)(C)C)[C@H](C)NC(=O)[C@H]([C@@H](C)O)NC(=O)[C@H](CC(=O)O)NC1=O [Compound 518] | 0.947 |  |  |  | 
CC(C)C[C@@H]1NC(=O)c2ccc(-c3ccc(N4CCN(Cc5cccc(CN6CCN(c7ccc(-c8ccc9cc8CNC(=O)[C@@H]8CCCN8[C@H](C(=O)NC(C)(C)C)[C@H](C)NC(=O)[C@H]([C@@H](C)O)NC(=O)[C@H](CC(=O)O)NC(=O)[C@H](CC(C)C)NC9=O)cc7)CC6)c5)CC4)cc3)c(c2)CNC(=O)[C@@H]2CCCN2[C@H](C(=O)NC(C)(C)C)[C@H](C)NC(=O)[C@H]([C@@H](C)O)NC(=O)[C@H](CC(=O)O)NC1=O [Compound 499] | 0.878 | 21 |  |  | 
CC(C)C[C@@H]1NC(=O)c2ccc(-c3ccc(N4CCN(C(=O)C[C@@H](N)C(=O)N5CCN(c6ccc(-c7ccc8cc7CNC(=O)[C@@H]7CCCN7[C@H](C(=O)NC(C)(C)C)[C@H](C)NC(=O)[C@H]([C@@H](C)O)NC(=O)[C@H](CC(=O)O)NC(=O)[C@H](CC(C)C)NC8=O)cc6)CC5)CC4)cc3)c(c2)CNC(=O)[C@@H]2CCCN2[C@H](C(=O)NC(C)(C)C)[C@H](C)NC(=O)[C@H]([C@@H](C)O)NC(=O)[C@H](CC(=O)O)NC1=O [Compound 493] | 1.25 | 28 |  |  | 
CC(C)C[C@@H]1NC(=O)c2ccc(-c3ccc(N4CCN(C(=O)C56CC7CC(C5)CC(C(=O)N5CCN(c8ccc(-c9ccc%10cc9CNC(=O)[C@@H]9CCCN9[C@H](C(=O)NC(C)(C)C)[C@H](C)NC(=O)[C@H]([C@@H](C)O)NC(=O)[C@H](CC(=O)O)NC(=O)[C@H](CC(C)C)NC%10=O)cc8)CC5)(C7)C6)CC4)cc3)c(c2)CNC(=O)[C@@H]2CCCN2[C@H](C(=O)NC(C)(C)C)[C@H](C)NC(=O)[C@H]([C@@H](C)O)NC(=O)[C@H](CC(=O)O)NC1=O [Compound 460] | 1.85 | 30 |  |  | 
CC(C)C[C@@H]1NC(=O)c2ccc(-c3ccc(N4CCN(C(=O)C5(C(=O)N6CCN(c7ccc(-c8ccc9cc8CNC(=O)[C@@H]8CCCN8[C@H](C(=O)NC(C)(C)C)[C@H](C)NC(=O)[C@H]([C@@H](C)O)NC(=O)[C@H](CC(=O)O)NC(=O)[C@H](CC(C)C)NC9=O)cc7)CC6)Cc6ccccc6C5)CC4)cc3)c(c2)CNC(=O)[C@@H]2CCCN2[C@H](C(=O)NC(C)(C)C)[C@H](C)NC(=O)[C@H]([C@@H](C)O)NC(=O)[C@H](CC(=O)O)NC1=O [Compound 461] | 1.22 | 31 |  |  | 
CC(C)C[C@@H]1NC(=O)c2ccc(-c3ccc(N4CCN(C(=O)CCOCCOCCNC(=O)CCCCCC(=O)NCCOCCOCCC(=O)N5CCN(c6ccc(-c7ccc8cc7CNC(=O)[C@@H]7CCCN7[C@H](C(=O)NC(C)(C)C)[C@H](C)NC(=O)[C@H]([C@@H](C)O)NC(=O)[C@H](CC(=O)O)NC(=O)[C@H](CC(C)C)NC8=O)cc6)CC5)CC4)cc3)c(c2)CNC(=O)[C@@H]2CCCN2[C@H](C(=O)NC(C)(C)C)[C@H](C)NC(=O)[C@H]([C@@H](C)O)NC(=O)[C@H](CC(=O)O)NC1=O [Compound 505] | 1.78 | 30 |  |  | 
CC(C)C[C@@H]1NC(=O)C[C@H](CCCCN)N(C)C(=O)[C@H](CCCCN)NC(=O)[C@@H]2CCCN2[C@H](C(=O)NC(C)(C)C)[C@H](C)NC(=O)[C@H]([C@@H](C)O)NC(=O)[C@H](CC(=O)O)NC1=O [Compound 456] |  |  | 45 | 8.92 | 45
CC(C)C[C@@H]1NC(=O)c2ccc(-c3ccc(N4CCN(C(=O)CCOCCOCCOCCOCCOCCOCCOCCOCCOCCOCCC(=O)N5CCN(c6ccc(-c7ccc8cc7CNC(=O)[C@@H]7CCCN7[C@H](C(=O)NC(C)(C)C)[C@H](C)NC(=O)[C@H]([C@@H](C)O)NC(=O)[C@H](CC(=O)O)NC(=O)[C@H](CC(C)C)NC8=O)cc6)CC5)CC4)cc3)c(c2)CNC(=O)[C@@H]2CCCN2[C@H](C(=O)NC(C)(C)C)[C@H](C)NC(=O)[C@H]([C@@H](C)O)NC(=O)[C@H](CC(=O)O)NC1=O [Compound 511] | 3.99 | 133 |  |  | 
CC(C)C[C@@H]1NC(=O)C[C@H](CCCCN)N(C)C(=O)[C@H](CCCCNC(=O)CCCCCCCCC(=O)NCCCC[C@@H]2NC(=O)[C@@H]3CCCN3[C@H](C(=O)NC(C)(C)C)[C@H](C)NC(=O)[C@H]([C@@H](C)O)NC(=O)[C@H](CC(=O)O)NC(=O)[C@H](CC(C)C)NC(=O)C[C@H](CCCCN)N(C)C2=O)NC(=O)[C@@H]2CCCN2[C@H](C(=O)NC(C)(C)C)[C@H](C)NC(=O)[C@H]([C@@H](C)O)NC(=O)[C@H](CC(=O)O)NC1=O [Compound 530] | 10.6 | 704 |  |  | 
CC(C)C[C@@H]1NC(=O)c2ccc(-c3ccc(N4CCN(C(=O)c5ccc(-c6ccc(C(=O)N7CCN(c8ccc(-c9ccc%10cc9CNC(=O)[C@@H]9CCCN9[C@H](C(=O)NC(C)(C)C)[C@H](C)NC(=O)[C@H]([C@@H](C)O)NC(=O)[C@H](CC(=O)O)NC(=O)[C@H](CC(C)C)NC%10=O)cc8)CC7)cc6)cc5)CC4)cc3)c(c2)CNC(=O)[C@@H]2CCCN2[C@H](C(=O)NC(C)(C)C)[C@H](C)NC(=O)[C@H]([C@@H](C)O)NC(=O)[C@H](CC(=O)O)NC1=O [Compound 474] | 1.3 | 95 |  |  | 
CC(C)C[C@@H]1NC(=O)c2ccc(-c3ccc(N4CCN(C(=O)[C@H](CCCCNC(=O)CCCCCC(=O)NCCCC[C@H](NC(=O)OCc5ccccc5)C(=O)N5CCN(c6ccc(-c7ccc8cc7CNC(=O)[C@@H]7CCCN7[C@H](C(=O)NC(C)(C)C)[C@H](C)NC(=O)[C@H]([C@@H](C)O)NC(=O)[C@H](CC(=O)O)NC(=O)[C@H](CC(C)C)NC8=O)cc6)CC5)NC(=O)OCc5ccccc5)CC4)cc3)c(c2)CNC(=O)[C@@H]2CCCN2[C@H](C(=O)NC(C)(C)C)[C@H](C)NC(=O)[C@H]([C@@H](C)O)NC(=O)[C@H](CC(=O)O)NC1=O [Compound 498] | 1.36 |  |  |  | 
CC(C)C[C@@H]1NC(=O)c2ccc(-c3ccc(N4CCN(C(=O)COCC(=O)N5CCN(c6ccc(-c7ccc8cc7CNC(=O)[C@@H]7CCCN7[C@H](C(=O)NC(C)(C)C)[C@H](C)NC(=O)[C@H]([C@@H](C)O)NC(=O)[C@H](CC(=O)O)NC(=O)[C@H](CC(C)C)NC8=O)cc6)CC5)CC4)cc3)c(c2)CNC(=O)[C@@H]2CCCN2[C@H](C(=O)NC(C)(C)C)[C@H](C)NC(=O)[C@H]([C@@H](C)O)NC(=O)[C@H](CC(=O)O)NC1=O [Compound 390] | 0.857 | 66 |  |  | 
CC(C)C[C@@H]1NC(=O)C[C@H](CCCCN)N(C)C(=O)[C@H](CCCCNC(=O)CCCCCC(=O)NCCCC[C@@H]2NC(=O)[C@@H]3CCCN3[C@H](C(=O)NC(C)(C)C)[C@H](C)NC(=O)[C@H]([C@@H](C)O)NC(=O)[C@H](CC(=O)O)NC(=O)[C@H](CC(C)C)NC(=O)C[C@H](CCCCN)N(C)C2=O)NC(=O)[C@@H]2CCCN2[C@H](C(=O)NC(C)(C)C)[C@H](C)NC(=O)[C@H]([C@@H](C)O)NC(=O)[C@H](CC(=O)O)NC1=O [Compound 532] | 7.15 |  |  |  | 
CC(C)C[C@@H]1NC(=O)c2ccc(-c3ccc(N4CCN(C(=O)c5nccnc5C(=O)N5CCN(c6ccc(-c7ccc8cc7CNC(=O)[C@@H]7CCCN7[C@H](C(=O)NC(C)(C)C)[C@H](C)NC(=O)[C@H]([C@@H](C)O)NC(=O)[C@H](CC(=O)O)NC(=O)[C@H](CC(C)C)NC8=O)cc6)CC5)CC4)cc3)c(c2)CNC(=O)[C@@H]2CCCN2[C@H](C(=O)NC(C)(C)C)[C@H](C)NC(=O)[C@H]([C@@H](C)O)NC(=O)[C@H](CC(=O)O)NC1=O [Compound 467] | 0.876 | 20 |  |  | 
CC(C)C[C@@H]1NC(=O)c2ccc(-c3ccc(N4CCN(C(=O)c5ccc(-c6cccc(C(=O)N7CCN(c8ccc(-c9ccc%10cc9CNC(=O)[C@@H]9CCCN9[C@H](C(=O)NC(C)(C)C)[C@H](C)NC(=O)[C@H]([C@@H](C)O)NC(=O)[C@H](CC(=O)O)NC(=O)[C@H](CC(C)C)NC%10=O)cc8)CC7)n6)nc5)CC4)cc3)c(c2)CNC(=O)[C@@H]2CCCN2[C@H](C(=O)NC(C)(C)C)[C@H](C)NC(=O)[C@H]([C@@H](C)O)NC(=O)[C@H](CC(=O)O)NC1=O [Compound 466] | 3.24 | 34 |  |  | 

— patent US11713338B2, “Cyclic peptides multimers targeting α-4-β-7 integrin” (priority 2016, dated 2023)
